Structure (SMILES)	melting point
O=C(O)c1ccc(COc2cc(C(=O)O)ccc2Nc2nc(-c3ccc(OCc4ccc(C5CCCCC5)cc4)cc3)cs2)cc1 [Example 74, 3-(4-carboxybenzyloxy)-4-(4-(4-(4-cyclohexylbenzyloxy)phenyl)-2-thiazolylamino)benzoic acid]	230 °C (dec.)
CC(C)N(Cc1ccc(C(=O)O)cc1)c1nc(-c2ccc(OCc3ccc(Cl)c(Cl)c3)cc2)cs1 [Example 77, 4-((N-(4-(4-(3,4-dichlorobenzyloxy)phenyl)-2-thiazolyl)-N-isopropylamino)methyl)benzoic acid]	180 to 181 °C
CC(C)N(c1ccc(-c2nnn[nH]2)cc1)c1nc(-c2ccc(OCc3ccc(C4CCCCC4)cc3)cc2)cs1 [Example 78, N-(4-(4-(4-cyclohexylbenzyloxy)phenyl)-2-thiazolyl)-N-isopropyl-(4-(1H-tetrazol-5-yl)phenyl)amine]	215 to 216 °C
CC(C)N(Cc1ccc(-c2nnn[nH]2)cc1)c1nc(-c2ccc(OCc3ccc(C4CCCCC4)cc3)cc2)cs1 [Example 79, N-(4-(4-(4-cyclohexylbenzyloxy)phenyl)-2-thiazolyl)-N-isopropyl-(4-(1H-tetrazol-5-yl)benzyl)amine]	238 to 239 °C
CC(C)N(Cc1cccc(-c2nnn[nH]2)c1)c1nc(-c2ccc(OCc3ccc(C4CCCCC4)cc3)cc2)cs1 [Example 80, N-(4-(4-(4-cyclohexylbenzyloxy)phenyl)-2-thiazolyl)-N-isopropyl-(3-(1H-tetrazol-5-yl)benzyl)amine]	221 to 222 °C
CC(C)N(Cc1cccc(C(=O)O)c1)c1nc(-c2ccc(OCc3ccc(C4CCCCC4)cc3)cc2)cs1 [Example 87, 3-((N-(4-(4-(4-cyclohexylbenzyloxy)phenyl)-2-thiazolyl)-N-isopropylamino)methyl)benzoic acid]	196 to 197 °C
CC(C)N(Cc1ccccc1C(=O)O)c1nc(-c2ccc(OCc3ccc(C4CCCCC4)cc3)cc2)cs1 [Example 88, 2-((N-(4-(4-(4-cyclohexylbenzyloxy)phenyl)-2-thiazolyl)-N-isopropylamino)methyl)benzoic acid]	259 to 261 °C
CN(c1ccc(C(=O)O)cc1)c1nc(-c2ccc(OCc3ccc(Cl)c(Cl)c3)cc2)cs1 [Example 89, 4-(N-(4-(4-(3,4-dichlorobenzyloxy)phenyl)-2-thiazolyl)-N-methylamino)benzoic acid]	230 °C (dec.)
CC(C)(c1ccc(C(=O)O)cc1)c1nc(-c2ccc(OCc3ccc(Cl)c(Cl)c3)cc2)cs1 [Example 90, 4-(1-(4-(4-(3,4-dichlorobenzyloxy)phenyl)-2-thiazolyl)-1-methylethyl)benzoic acid]	170 to 172 °C
O=C(O)c1ccc(C2(c3nc(-c4ccc(OCc5ccc(C6CCCCC6)cc5)cc4)cs3)CCCC2)cc1 [Example 91, 4-(1-(4-(4-(4-cyclohexylbenzyloxy)phenyl)-2-thiazolyl)cyclopentyl)benzoic acid]	248 to 251 °C
CC(C)(c1ccc(C(=O)O)cc1)c1nc(-c2ccc(OCc3ccc(-c4ccccc4)cc3)cc2)cs1 [Example 92, 4-(1-(4-(4-(4-biphenylylmethoxy)phenyl)-2-thiazolyl)-1-methylethyl)benzoic acid]	230 °C (dec.)
O=C(O)c1ccc(C2(c3nc(-c4ccc(OCc5ccc(Cl)c(Cl)c5)cc4)cs3)CCCCC2)cc1 [Example 93, 4-(1-(4-(4-(3,4-dichlorobenzyloxy)phenyl)-2-thiazolyl)cyclohexyl)benzoic acid]	168 to 171 °C
O=C(O)c1ccc(Nc2nc(-c3ccc(OCc4ccc(Cl)c(Cl)c4)cc3)cs2)cc1 [Example 94, 4-(4-(4-(3,4-dichlorobenzyloxy)phenyl)-2-thiazolylamino)benzoic acid]	230 °C (dec.)
O=C(O)c1ccc(Nc2nc(-c3ccc(OCc4ccc(-c5ccccc5)cc4)cc3)cs2)cc1 [Example 95, 4-(4-(4-(4-biphenylylmethoxy)phenyl)-2-thiazolylamino)benzoic acid]	230 °C (dec.)
CC(C)N(c1ccc(C(=O)O)cc1)c1nc(-c2ccc(OCc3ccc(Cl)c(Cl)c3)cc2)cs1 [Example 96, 4-(N-(4-(4-(3,4-dichlorobenzyloxy)phenyl)-2-thiazolyl)-N-isopropylamino)benzoic acid]	236 to 238 °C
CN(C)CCN(c1ccc(C(=O)O)cc1)c1nc(-c2ccc(OCc3ccc(Cl)c(Cl)c3)cc2)cs1 [Example 97, 4-(N-(4-(4-(3,4-dichlorobenzyloxy)phenyl)-2-thiazolyl)-N-(2-dimethylaminoethyl)amino)benzoic acid]	230 °C (dec.)
O=C(O)c1ccc(N(CCN2CCCCC2)c2nc(-c3ccc(OCc4ccc(Cl)c(Cl)c4)cc3)cs2)cc1 [Example 98, 4-(N-(4-(4-(3,4-dichlorobenzyloxy)phenyl)-2-thiazolyl)-N-(2-piperidinoethyl)amino)benzoic acid]	230 °C (dec.)

Structure (SMILES)	melting point
COCCN(c1ccc(C(=O)O)cc1)c1nc(-c2ccc(OCc3ccc(Cl)c(Cl)c3)cc2)cs1 [Example 99, 4-(N-(4-(4-(3,4-dichlorobenzyloxy)phenyl)-2-thiazolyl)-N-(2-methoxyethyl)amino)benzoic acid]	175 to 178 °C
O=C(O)c1ccc(C2(c3nc(-c4ccc(OCc5ccc(C6CCCCC6)cc5)cc4)cs3)CCCCC2)cc1 [Example 100, 4-(1-(4-(4-(4-cyclohexylbenzyloxy)phenyl)-2-thiazolyl)cyclohexyl)benzoic acid]	222 to 224 °C
O=C(O)c1ccc(C2(c3nc(-c4ccc(OCc5ccc(C6CCCCC6)cc5)cc4)cs3)CCOCC2)cc1 [Example 101, 4-(4-(4-(4-(4-cyclohexylbenzyloxy)phenyl)-2-thiazolyl)tetrahydropyran-4-yl)benzoic acid]	230 °C (dec.)
CC(C)N(Cc1ccc(C(=O)O)cc1)c1nc(-c2ccc(NS(=O)(=O)c3ccc(C(C)(C)C)cc3)cc2)cs1 [Example 104, 4-((N-(4-(4-(4-tert-butylbenzenesulfonylamino)phenyl)-2-thiazolyl)-N-isopropylamino)methyl)benzoic acid]	178 to 180 °C
CC(C)N(Cc1ccc(C(=O)O)cc1)c1nc(-c2ccc(NS(=O)(=O)c3ccc(Cl)c(Cl)c3)cc2)cs1 [Example 105, 4-((N-(4-(4-(3,4-dichlorobenzenesulfonylamino)phenyl)-2-thiazolyl)-N-isopropylamino)methyl)benzoic acid]	193 to 195 °C
CC(C)N(Cc1ccc(C(=O)O)cc1)c1nc(-c2ccc(NS(=O)(=O)c3ccc(C(F)(F)F)cc3)cc2)cs1 [Example 106, 4-((N-isopropyl-N-(4-(4-(4-trifluoromethylbenzenesulfonylamino)phenyl)-2-thiazolyl)amino)methyl)benzoic acid]	132 to 134 °C
CC(C)N(Cc1ccc(C(=O)O)cc1)c1nc(-c2ccc(N(Cc3ccccc3)Cc3ccccc3)cc2)cs1 [Example 109, 4-((N-(4-(4-dibenzylaminophenyl)-2-thiazolyl)-N-isopropylamino)methyl)benzoic acid]	144 to 146 °C
O=C(O)c1ccc(CN(CC2CCCCC2)c2nc(-c3ccc(N(Cc4ccc(Cl)c(Cl)c4)Cc4ccc(Cl)c(Cl)c4)cc3)cs2)cc1 [Example 117, 4-((N-(4-(4-(bis(3,4-dichlorobenzyl)amino)phenyl)-2-thiazolyl)-N-cyclohexylmethylamino)methyl)benzoic acid]	120 °C (dec.)
CN(Cc1ccc(Cl)c(Cl)c1)c1ccc(-c2csc(N(Cc3ccc(C(=O)O)cc3)CC3CCCCC3)n2)cc1 [Example 118, 4-((N-cyclohexylmethyl-N-(4-(4-(N-(3,4-dichlorobenzyl)-N-methylamino)phenyl)-2-thiazolyl)amino)methyl)benzoic acid]	125 to 127 °C
C=CCN(Cc1ccc(C2CCCCC2)cc1)c1ccc(-c2csc(N(C)Cc3ccc(C(=O)O)cc3)n2)cc1 [Example 119, 4-((N-(4-(4-(N-allyl-N-(4-cyclohexylbenzyl)amino)phenyl)-2-thiazolyl)-N-methylamino)methyl)benzoic acid]	139 to 141 °C
CN(Cc1ccc(C(=O)[O-])cc1)c1nc(-c2ccc(OCc3ccc(C4CCCCC4)cc3)cc2)cs1.[Na+] [Example 120, sodium 4-((N-(4-(4-(4-cyclohexylbenzyloxy)phenyl)-2-thiazolyl)-N-methylamino)methyl)benzoate]	250 °C (dec.)
CN(c1ccc(C(=O)O)cc1)c1nc(-c2ccc(NCc3ccc(Cl)c(Cl)c3)cc2)cs1 [Example 128, 4-(N-(4-(4-(3,4-dichlorobenzylamino)phenyl)-2-thiazolyl)-N-methylamino)benzoic acid]	223 to 225 °C
O=C(O)c1ccc(N(CC2CCCCC2)c2nc(-c3ccc(NCc4ccc(Cl)c(Cl)c4)cc3)cs2)cc1 [Example 129, 4-(N-cyclohexylmethyl-N-(4-(4-(3,4-dichlorobenzylamino)phenyl)-2-thiazolyl)amino)benzoic acid]	187 to 189 °C
CC(C)c1ccc(CNc2ccc(-c3csc(N(CC4CCCCC4)c4ccc(C(=O)O)cc4)n3)cc2)cc1 [Example 130, 4-(N-cyclohexylmethyl-N-(4-(4-(4-isopropylbenzylamino)phenyl)-2-thiazolyl)amino)benzoic acid]	200 to 202 °C
CC(C)Cc1ccc(CNc2ccc(-c3csc(N(CC4CCCCC4)c4ccc(C(=O)O)cc4)n3)cc2)cc1 [Example 131, 4-(N-cyclohexylmethyl-N-(4-(4-(4-isobutylbenzylamino)phenyl)-2-thiazolyl)amino)benzoic acid]	167 to 169 °C
CN(Cc1ccc(C2CCCCC2)cc1)c1ccc(-c2csc(N(C)c3ccc(C(=O)O)cc3)n2)cc1 [Example 132, 4-(N-(4-(4-(N-(4-cyclohexylbenzyl)-N-methylamino)phenyl)-2-thiazolyl)-N-methylamino)benzoic acid]	185 to 189 °C
CN(c1ccc(C(=O)O)cc1)c1nc(-c2ccc(NCc3ccc(C(F)(F)F)cc3)cc2)cs1 [Example 133, 4-(N-methyl-N-(4-(4-(4-trifluoromethylbenzylamino)phenyl)-2-thiazolyl)amino)benzoic acid]	230 °C (dec.)

— patent US7163952B2, “Azole compound and medicinal use thereof” (Japan Tobacco Inc., priority 2001, dated 2007)
